Laboratory results from patent US12577206B2 (BRISTOL-MYERS SQUIBB COMPANY, priority 2020, dated 2026).

Experiments:
[1] = molecular target: T1, human FPR1 (Homo sapiens, UniProt P21462); assay: FPR1 cyclic adenosine monophosphate (cAMP) assay; assay type: cell-based; details: CHO cells overexpressing human FPR1; forskolin 10 μM; inhibition of cAMP production; HTRF; read-out: hFPR1 cAMP2 EC50
T1 sequence (P21462 1-350): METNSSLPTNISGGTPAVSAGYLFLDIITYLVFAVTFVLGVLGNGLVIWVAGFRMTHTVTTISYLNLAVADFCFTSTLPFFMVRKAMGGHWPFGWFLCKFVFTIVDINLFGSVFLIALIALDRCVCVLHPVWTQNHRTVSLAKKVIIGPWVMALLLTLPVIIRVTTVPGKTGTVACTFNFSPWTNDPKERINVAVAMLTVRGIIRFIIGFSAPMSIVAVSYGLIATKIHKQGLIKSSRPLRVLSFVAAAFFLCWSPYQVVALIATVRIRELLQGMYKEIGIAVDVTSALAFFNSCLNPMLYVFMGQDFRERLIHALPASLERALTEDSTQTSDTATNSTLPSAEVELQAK
How it was run: (§1)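 CHO cells overexpressing human FPR1 (4,000/well) or FPR2 (2,000/well) were incubated 30 min at room temperature with compound (0.020 nM to 100 μM, 1% DMSO), IBMX 200 μM, and forskolin at 10 μM (FPR1) or 5 μM (FPR2), all final. HTRF cAMP read-out; inhibition fitted by 4-parameter logistic equation.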

[2] = molecular target: T2, human FPR2 (Homo sapiens, UniProt P25090); assay: FPR2 cyclic adenosine monophosphate (cAMP) assay; assay type: cell-based; details: CHO cells overexpressing human FPR2; forskolin 5 μM; inhibition of cAMP production; HTRF; read-out: hFPR2 cAMP2 EC50
T2 sequence (P25090 1-351): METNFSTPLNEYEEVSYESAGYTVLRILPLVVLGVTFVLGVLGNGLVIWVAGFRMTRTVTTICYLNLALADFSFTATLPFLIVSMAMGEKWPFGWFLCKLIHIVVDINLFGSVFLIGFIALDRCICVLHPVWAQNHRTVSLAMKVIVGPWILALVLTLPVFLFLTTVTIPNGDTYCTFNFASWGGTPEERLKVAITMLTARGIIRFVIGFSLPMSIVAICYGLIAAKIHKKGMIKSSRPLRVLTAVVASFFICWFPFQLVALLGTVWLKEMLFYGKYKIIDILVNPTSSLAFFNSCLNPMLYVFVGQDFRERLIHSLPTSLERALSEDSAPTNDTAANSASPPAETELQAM
How it was run: as §1

COc1cc(F)c(-c2c(NC(=O)c3ccc(OC(F)F)cc3)c(=O)n(-c3cc(OCC(C)O)cc(C)n3)n2C)c(F)c1 (stereo not drawn) [Example 393, N-(5-(2,6-Difluoro-4-methoxyphenyl)-2-(4-(2-hydroxypropoxy)-6-methylpyridin-2-yl)-1-methyl-3-oxo-2,3-dihydro-1H-pyrazol-4-yl)-4-(difluoromethoxy)benzamide]
EC50 [1]: 2800 nM
EC50 [2]: 15 nM

COc1cc(F)c(-c2c(NC(=O)c3ccc(OC(F)F)cc3)c(=O)n(-c3cc(F)cc(C(C)(C)O)c3)n2C)c(F)c1 [Example 148, N-[5-(2,6-difluoro-4-methoxyphenyl)-2-[3-fluoro-5-(2-hydroxypropan-2-yl)phenyl]-1-methyl-3-oxo-2,3-dihydro-1H-pyrazol-4-yl]-4-(difluoromethoxy)benzamide]
EC50 [1]: 1500 nM
EC50 [2]: 4 nM

COc1cc(F)c(-c2c(NC(=O)c3ccc(OC(F)F)cc3)c(=O)n(-c3nccc(C)c3C#N)n2C)c(F)c1 [Example 201, N-[2-(3-cyano-4-methylpyridin-2-yl)-5-(2,6-difluoro-4-methoxyphenyl)-1-methyl-3-oxo-2,3-dihydro-1H-pyrazol-4-yl]-4-(difluoromethoxy)benzamide]
EC50 [1]: > 10000 nM
EC50 [2]: 4 nM

COc1cc(F)c(-c2c(NC(=O)c3ccc(OC(F)F)cc3)c(=O)n(-c3cc(F)cc(OC(C)C)c3)n2C)c(F)c1 [Example 125, N-[5-(2,6-difluoro-4-methoxyphenyl)-2-[3-fluoro-5-(propan-2-yloxy)phenyl]-1-methyl-3-oxo-2,3-dihydro-1H-pyrazol-4-yl]-4-(difluoromethoxy)benzamide]
EC50 [1]: 2000 nM
EC50 [2]: 4 nM

COc1cc(F)c(-c2c(NC(=O)c3ccc(OC(F)F)cc3)c(=O)n(-c3nc(C(C)(C)O)ccc3C#N)n2C)c(F)c1 [Example 291, N-{2-[3-cyano-6-(2-hydroxypropan-2-yl)pyridin-2-yl]-5-(2,6-difluoro-4-methoxyphenyl)-1-methyl-3-oxo-2,3-dihydro-1H-pyrazol-4-yl}-4-(difluoromethoxy)benzamide]
EC50 [1]: > 10000 nM
EC50 [2]: 2 nM

COc1cc(F)c(-c2c(NC(=O)c3ccc(OC(F)F)cc3)c(=O)n(-c3cc(C)cc(C4CCN(C)CC4)n3)n2C)c(F)c1 [Example 361]
EC50 [1]: > 10000 nM
EC50 [2]: 1 nM

COc1ccc(-c2c(NC(=O)c3ccc(OC(F)F)cc3)c(=O)n(-c3ncccc3C(F)(F)F)n2C)cc1C [Example 246, 4-(difluoromethoxy)-N-(5-(4-methoxy-3-methylphenyl)-1-methyl-3-oxo-2-(3-(trifluoromethyl)pyridin-2-yl)-2,3-dihydro-1H-pyrazol-4-yl)benzamide]
EC50 [1]: > 10000 nM
EC50 [2]: 315 nM

COc1cc(F)c(-c2c(NC(=O)c3ccc(OC(F)F)cc3)c(=O)n(-c3cccc(C(F)F)n3)n2C)c(F)c1 [Example 67, N-[5-(2,6-difluoro-4-methoxyphenyl)-2-[6-(difluoromethyl)pyridin-2-yl]-1-methyl-3-oxo-2,3-dihydro-1H-pyrazol-4-yl]-4-(difluoromethoxy)benzamide]
EC50 [1]: 3400 nM
EC50 [2]: 9 nM

CCOC(=O)c1cc(F)cc(-n2c(=O)c(NC(=O)c3ccc(OC(F)F)cc3)c(-c3c(F)cc(OC)cc3F)n2C)c1 [Example 133, ethyl 3-[3-(2,6-difluoro-4-methoxyphenyl)-4-[4-(difluoromethoxy)benzamido]-2-methyl-5-oxo-2,5-dihydro-1H-pyrazol-1-yl]-5-fluorobenzoate]
EC50 [1]: 550 nM
EC50 [2]: 3 nM

COc1cc(F)c(-c2c(NC(=O)c3ccc(OC(F)F)cc3)c(=O)n(-c3nc(N4CC(C)(O)C4)ccc3F)n2C)c(F)c1 [Example 210, N-[5-(2,6-difluoro-4-methoxyphenyl)-2-[3-fluoro-6-(3-hydroxy-3-methylazetidin-1-yl)pyridin-2-yl]-1-methyl-3-oxo-2,3-dihydro-1H-pyrazol-4-yl]-4-(difluoromethoxy)benzamide]
EC50 [1]: 4800 nM
EC50 [2]: 11 nM

COc1cc(F)c(-c2c(NC(=O)c3ccc(OC(F)F)cc3)c(=O)n(-c3ccc(-c4ccccc4)cn3)n2C)c(F)c1 [Example 51, N-[5-(2,6-difluoro-4-methoxyphenyl)-1-methyl-3-oxo-2-(5-phenylpyridin-2-yl)-2,3-dihydro-1H-pyrazol-4-yl]-4-(difluoromethoxy)benzamide]
EC50 [1]: 1100 nM
EC50 [2]: 18 nM

COc1cc(F)c(-c2c(NC(=O)c3ccc(OC(F)F)cc3)c(=O)n(-c3cccc(N(C)C)n3)n2C)c(F)c1 [Example 82, N-[5-(2,6-difluoro-4-methoxyphenyl)-2-[6-(dimethylamino)pyridin-2-yl]-1-methy-3-oxo-2,3-dihydro-1H-pyrazol-4-yl]-4-(difluoromethoxy)benzamide]
EC50 [1]: 520 nM
EC50 [2]: 2 nM

COc1cc(C2CCCN(CCO)C2)nc(-n2c(=O)c(NC(=O)c3ccc(OC(F)F)cc3)c(-c3c(F)cc(OC)cc3F)n2C)c1 (stereo not drawn) [Example 338, N-(5-(2,6-Difluoro-4-methoxyphenyl)-2-(6-(1-(2-hydroxyethyl)piperidin-3-yl)-4-methoxypyridin-2-yl)-1-methyl-3-oxo-2,3-dihydro-1H-pyrazol-4-yl)-4-(difluoromethoxy)benzamide]
EC50 [1]: > 10000 nM
EC50 [2]: 2 nM

COc1cc(F)c(-c2c(NC(=O)c3ccc(OC(F)F)cc3)c(=O)n(-c3nc(C4CC4)ccc3C#N)n2C)c(F)c1 [Example 161, N-[2-(3-cyano-6-cyclopropylpyridin-2-yl)-5-(2,6-difluoro-4-methoxyphenyl)-1-methyl-3-oxo-2,3-dihydro-1H-pyrazol-4-yl]-4-(difluoromethoxy)benzamide]
EC50 [1]: > 10000 nM
EC50 [2]: 4 nM

COCC(CO)Oc1cc(OC)cc(-n2c(=O)c(NC(=O)c3ccc(OC(F)F)cc3)c(-c3c(F)cc(OC)cc3F)n2C)n1 (stereo not drawn) [Example 386, N-(5-(2,6-Difluoro-4-methoxyphenyl)-2-(6-((1-hydroxy-3-methoxypropan-2-yl)oxy)-4-methoxypyridin-2-yl)-1-methyl-3-oxo-2,3-dihydro-1H-pyrazol-4-yl)-4-(difluoromethoxy)benzamide]
EC50 [1]: > 10000 nM
EC50 [2]: 9 nM

COc1cc(O)c(-c2c(NC(=O)c3ccc(OC(F)F)cc3)c(=O)n(-c3nc(NCCO)ccc3C(F)(F)F)n2C)c(F)c1 [Example 230, 4-(difluoromethoxy)-N-[5-(2-fluoro-6-hydroxy-4-methoxyphenyl)-2-{6-[(2-hydroxyethyl)amino]-3-(trifluoromethyl)pyridin-2-yl}-1-methyl-3-oxo-2,3-dihydro-1H-pyrazol-4-yl]benzamide]
EC50 [1]: > 10000 nM
EC50 [2]: 10 nM

COc1cc(F)c(-c2c(NC(=O)c3ccc(OC(F)F)cc3)c(=O)n(-c3nc(NCC(C)(C)O)ccc3C(F)(F)F)n2C)c(F)c1 [Example 271, N-[5-(2,6-difluoro-4-methoxyphenyl)-2-{6-[(2-hydroxy-2-methylpropyl)amino]-3-(trifluoromethyl)pyridin-2-yl}-1-methyl-3-oxo-2,3-dihydro-1H-pyrazol-4-yl]-4-(difluoromethoxy)benzamide]
EC50 [1]: > 10000 nM
EC50 [2]: 3 nM

COc1cc(F)c(-c2c(NC(=O)c3ccc(OC(F)F)cc3)c(=O)n(-c3cccc(N4CCOCC4)n3)n2C)c(F)c1 [Example 79, N-[5-(2,6-difluoro-4-methoxyphenyl)-1-methyl-2-[6-(morpholin-4-yl)pyridin-2-yl]-3-oxo-2,3-dihydro-1H-pyrazol-4-yl]-4-(difluoromethoxy)benzamide]
EC50 [1]: > 10000 nM
EC50 [2]: 10 nM

COc1cc(F)c(-c2c(NC(=O)c3ccc(OC(F)(F)F)cc3)c(=O)n(-c3cccc(-c4ccccc4)n3)n2C)c(F)c1 [Example 73, N-[5-(2,6-difluoro-4-methoxyphenyl)-1-methyl-3-oxo-2-(6-phenylpyridin-2-yl)-2,3-dihydro-1H-pyrazol-4-yl]-4-(trifluoromethoxy)benzamide]
EC50 [1]: 950 nM
EC50 [2]: 13 nM

COc1cc(F)c(-c2c(NC(=O)c3ccc(OC(F)(F)F)cc3)c(=O)n(-c3ccccc3C#N)n2C)c(F)c1 [Example 174, N-[2-(2-cyanophenyl)-5-(2,6-difluoro-4-methoxyphenyl)-1-methyl-3-oxo-2,3-dihydro-1H-pyrazol-4-yl]-4-(trifluoromethoxy)benzamide]
EC50 [1]: > 10000 nM
EC50 [2]: 7 nM

COc1cc(F)c(-c2c(NC(=O)c3ccc(OC(F)F)cc3)c(=O)n(-c3cc(C)cc(C#N)n3)n2C)c(F)c1 [Example 362, N-(2-(6-Cyano-4-methylpyridin-2-yl)-5-(2,6-difluoro-4-methoxyphenyl)-1-methyl-3-oxo-2,3-dihydro-1H-pyrazol-4-yl)-4-(difluoromethoxy)benzamide]
EC50 [1]: > 10000 nM
EC50 [2]: 10 nM
